Where “and” joins values, the source holds several entries; their conditions need not be identical. Equal values may be shown once.
What was measured:
NOD mice = experiment: Spontaneous diabetes in NOD mice (glucosuria, IPGTT); format: in vivo
Description: Animals: Non-obese diabetic (NOD) mice develop spontaneous autoimmune diabetes and are commonly used as an experimental model for human insulin-dependent diabetes mellitus [Miazaki A., Clin. Exp. Immunol. 60:622 (1998); Harada, M., Exp. Clin. Endocrinol. 89: 251 (1987)].
Six to twelve week old NOD/Ltj female mice were fed standard laboratory animal chow ad libitum and were kept in Specific Pathogen Free (SPF) animal house facility.
(§1) Mice injected with vehicle alone as well as untreated mice served as controls.
Glucosuria analysis: The severity of diabetes was determined according to glucosuria, which was measured using Combi 9 Teststrips (Medi-Test, Macherey-Nagel, Duren, Germany).
Intraperitoneal glucose tolerance tests (IPGTT): Blood samples were obtained from the paraorbital plexus at 0 and 60 minutes after administration of an i.p. glucose injection at a dose of 1 g/kg body weight. Plasma glucose levels were determined using Glucose Analyzer 2 (Beckman Instruments). A glucose level above 15 mmol/liter at the 60 min time point was considered as a positive IPGTT.

INFγ = experiment: Plasma INFγ level in NOD mice by ELISA; format: in vivo; conditions: 5 mg/kg i.p., mean of 5 mice
Protocol: as §1
Plasma INFγ: INFγ is associated with the progression of diabetes in NOD mice (Schloot, N. C., Diabetes Metab. Res. Rev. 18:64, 2002; Weiss et al., Cytokine 19:85, 2002; Braz, J., Med. Biol. Res. 35: 1347, 2000).
Plasma INFγ levels in mice were determined by ELISA kit (B.D Bioscience San Diego U.S.A).

islets of Langerhans = experiment: Histopathology of pancreatic islets (insulitis) in NOD mice; format: in vivo
Description: as §1
Histopathology: Twenty weeks after onset of treatment mice were sacrificed. Pancreatic tissue samples were fixed in 4% buffered formation, embedded in paraffin, sectioned (5 μm thickness) and stained with hematoxylin and eosin. The stained pancreatic sections were observed under a microscope for infiltration of mononuclear lymphocytes into the islets of Langerhans (insulitis). The sections were scored by two uninformed observers as follows: 0, no cell infiltration; 1, cell infiltration in <20% of islet area; 2, cell infiltration in <50% of islet area; cell infiltration in <75% of islet area; and 4, cell infiltration in 90-100% of islet area.

male NOD mice = experiment: Diabetes induced in male NOD mice by transfer of spleen cells from diabetic female mice; format: in vivo
Protocol: Experimental design—Male NOD mice were irradiated (650 cGy), 24 hrs prior to intravenous injection of spleen cells (25-28×10^6) derived from female diabetic mice.
Intraperitoneal glucose tolerance tests (IPGTT)—see Example 1 above. Blood glucose levels above 140 mg/dl were considered diabetic by testing blood glucose at t-0, 60 min following IP injection of 1 gr/Kg body weight of glucose [Glucometer Elite apparatus (Bayer Diagnostics, ELKART, IN)]. Alternatively, urine samples were taken twice a week from diabetic mice for testing glucose levels. Urine glucose levels above 1000 mg/dl as determined by combi 9 Teststrips (Medi-Test, Macherey-Nagel, Duren, Germany) were considered diabetic;

mice [1] = conditions: orally at doses of up to 10 mg/kg; cited from earlier work
mice [2] = conditions: topical administration; cited from earlier work
[3] = tested on: mouse peritoneal macrophages; conditions: macrophages activated by LPS and IFNγ; cited from earlier work
human leukocytes = conditions: cited from earlier work
peripheral receptors CB2 = peripheral receptors CB2 (Homo sapiens, UniProt P34972); conditions: cited from earlier work
peripheral receptors CB2, sequence (P34972 whole entry): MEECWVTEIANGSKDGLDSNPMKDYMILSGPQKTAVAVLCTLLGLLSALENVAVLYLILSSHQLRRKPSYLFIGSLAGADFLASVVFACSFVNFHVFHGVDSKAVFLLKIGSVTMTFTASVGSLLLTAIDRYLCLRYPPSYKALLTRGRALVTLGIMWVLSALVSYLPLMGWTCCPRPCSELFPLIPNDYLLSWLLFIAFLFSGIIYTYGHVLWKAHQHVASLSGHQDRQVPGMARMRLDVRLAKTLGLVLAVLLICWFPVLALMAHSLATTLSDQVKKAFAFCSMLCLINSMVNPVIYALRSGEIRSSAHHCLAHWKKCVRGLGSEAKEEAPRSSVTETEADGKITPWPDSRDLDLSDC

[4] = 20 weeks after onset of treatment, of 54 scored fields
[5] = 5 mg/kg CBD, 20 IP injections, 5 times/week, of 15 mice
[6] = high concentrations (5-24 pg/ml)

With `C=C(C)[C@@H]1CCC(C)=C[C@H]1c1c(O)cc(CCCCC)cc1O` [CBD, Cannabidiol] the “onset of symptoms in the CBD-treated diabetic mice” value (NOD mice; compared to untreated and vehicle-treated controls) was “substantially delayed”, the rate of protection (NOD mice; compared with controls) was “greater than 65%” and the “Diabetes appearance (weeks), mean and range of weeks of first positive diagnosis” value (NOD mice; female NOD mice, 5 mg/kg i.p.) was 18.4 (15-22) weeks. The “Diabetes incidence (%)” value (NOD mice; female NOD mice, 5 mg/kg i.p., 5 injections per week, 10-23 injections) was 21.7%, the “No. of diabetic mice” value (NOD mice; female NOD mice, 5 mg/kg i.p., 5 injections per week, 10-23 injections, of 23 mice) was 5 and the “INFγ (pg/ml) ± SD” value (INFγ) was 43 pg/ml and 43 ± 21*^2 pg/ml. For the same compound, the islets showing destruction (islets of Langerhans; 1/54) was 1.9%, the “islets showing total infiltration” value (islets of Langerhans; 6/54) was 11% and the “protected islets (intact or only partially infiltrated)” value (islets of Langerhans; 20 week period, 47/54) was 87%. For the same compound, the “No. of fully destroyed islets” value (islets of Langerhans; [4]) was 1, the “No. of intact islets” value (islets of Langerhans; [4]) was 26 and the “No. of partially infiltrated islets” value (islets of Langerhans; [4]) was 21. For the same compound, the “No. of totally infiltrated islets” value (islets of Langerhans; [4]) was 6, the “only partially infiltrated pancreatic islets” value (islets of Langerhans; 21/54) was 39% and the intact pancreatic islets (islets of Langerhans; 26/54) was 48%. For the same compound, the “Total % of diabetic mice” value (male NOD mice; 5 mg/kg CBD, 20 IP injections, 5 times/week) was 53%, the “No. of diabetic mice (urine glucose above 1000 mg/dl)” value (male NOD mice; [5]) was 6 and the “No. of mice w/ latent diabetes (blood glucose above 140 mg/dl 60 minutes following IP glucose injection)” value (male NOD mice; [5]) was 2. The “suppression of the appearance of diabetes” value (male NOD mice; male NOD mice injected with splenocytes from diabetic female NOD mice) was “about half”, the PBQ-induced writhing (mice [1]) was “inhibited” and the TPA-induced erythema (mice [2]) was “reduce”. For the same compound, the “nitric oxide (NO) produced” value [3] was “inhibited”, the IFNγ synthesis (human leukocytes; [6]) was “completely blocked” and the IL-1 production (human leukocytes; [6]) was “decreased”. The IL-2 secretion (human leukocytes; [6]) was “did not affect”, the TNFα production (human leukocytes; [6]) was “decreased” and the IFNγ production (human leukocytes; low concentrations) was “increased”. For the same compound, the “binding to peripheral receptors CB2” value (peripheral receptors CB2) was “does not bind”.

Source: patent US8071641B2 (Yissum Research Development Company of the Hebrew …, priority 2004, dated 2011)
